We go through 2 compounds from patent publication US11813305B2, “Endoplasmic reticulum stress as a predictive tool in cancer therapy and a combination therapy for the treatment of cancer” (IMMUNE SYSTEM KEY LTD., priority 2016, dated 2023).

Test [1] has as its system human ovarian cancer cells (OV90). Nature of the test: BrdU incorporation assay. Format: cell-based. The note with it: Taxol alone, 2 nM or 4 nM, FIG. 13A. The protocol:
(§1) Cells were placed at 2,000 cells/well in the middle of a 96 well plate with 100 μl DMEM (life science 41965-039) and 10% fetal calf serum (FBS, Biological industries 14-127-1A) for 24 hours in an incubator at 37° C. with 5% CO2. The medium was then replaced to 200 μl DMEM with 2.5% FBS and Taxol (sigma T7402) at a final concentration of 2 nM or 4 nM in DMSO or dTCApFs (nextar ISK353-01 batch 351-01/1.68) at a final concentration of 25 μg/ml in DMSO. The medium in the control cells was replaced by DMEM and FBS as indicated above. The maximal concentration of DMSO in the cell wells was less than 0.5%. Four wells were used for each concentration.
(§2) Taxol- and dTCApFs-treated cells as well as the control cells were further incubated for 24 hours in the presence of BrdU as follows: 20 μl BrdU reagent (diluted 1:100 in DMEM supplemented with 2.5% FBS) was added to the cells and the plate was incubated 24 hours in 37° degrees incubator with 5% CO2. BrdU ELISA was performed according to the kit protocol (Millipore #2752).
(§3) Cells were placed at 2000 cells/well in the middle of a 96 well plate with 100 μl DMEM and 10% FBS for 24 hours in an incubator at 37° C. with 5% CO2. The medium was then replaced to 200 μl DMEM with 2.5% FBS and dTCApFs at a final concentration of 25 μg/ml (nextar ISK353-01 batch 351-01/1.68) in DMSO. The maximal concentration of DMSO in the cells wells was less than 0.5%. […]

The subject of test [2] is human pancreatic cancer cells (BxPC3). Nature of the test: BrdU incorporation assay. Format: cell-based. The following applies: Taxol alone, 2 nM or 4 nM, FIG. 13B. The method, then:
as §1, §2, §3

The test system of test [3] is human TNBC cells (human MDA231). Nature of the test: Triple negative breast cancer tumors in mice. Format: in vivo, nude mice. The following applies: doxorubicin alone, once a week at 3 mg/kg, FIG. 14. The protocol:
Therefore, 32 nude mice were inoculated subcutaneously (S.C.) with 9 million human TNBC cells (human MDA231, ATCC) per mouse. Cells were cultured as known in the art, for example, as described above. When the tumors exceeded a volume of 40 mm^3, the mice were randomly divided into five groups, as follows. The “Control” group (n=5) was treated with 5% mannitol; the “dTCApFs” group (n=5) was treated once a week with dTCApFs at 15 mg/kg; the “Dox” group (n=5) was treated once a week with doxorubicin (Sigma Aldrich) at 3 mg/kg; the “dTCApFs+Dox next day” (n=8) group was treated with dTCApFs at 15 mg/kg and 24 hours later also with doxorubicin, at 3 mg/kg; and the “dTCApFs+Dox same day” (n=9) group was treated with dTCApFs at 15 mg/kg and with doxorubicin at 3 mg/kg, on same day.

The next test relates to B16 cells. Nature of the test: Melanoma tumors in mice, dTCApFs and doxorubicin. Format: in vivo, C57bl/6 mice. The note with it: doxorubicin alone, once a week at 3 mg/kg, FIG. 17. The method, then:
In order to examine the effect of a combination of dTCApFs and doxorubicin on melanoma tumor volume, the following experiments were performed in mice. C57bl/6 mice (28) were inoculated SC with 0.2 million B16 cells (ATCC) per mouse. B16 melanoma is a murine tumor cell line used for research as a model for human skin cancers. When tumors exceeded a volume of 50 mm^3, the mice were randomly divided into 4 groups, as follows. “Control” group (n=6) was treated with 5% mannitol; “dTCApFs” treated group (n=6) was treated once a week with dTCApFs (at 15 mg/kg); “Dox” treated group (n=6) was treated once a week with doxorubicin (at 3 mg/kg); and dTCApFs+Dox same day” group (n=10) was treated once a week with dTCApFs and doxorubicin (at 15 mg/kg and 3 mg/kg, respectively), when both agents were administered on the same day.

As for `CC(=O)O[C@H]1C(=O)[C@@]2(C)[C@H]([C@H](OC(=O)c3ccccc3)[C@]3(O)C[C@H](OC(=O)[C@H](O)[C@@H](NC(=O)c4ccccc4)c4ccccc4)C(C)=C1C3(C)C)[C@]1(OC(C)=O)CO[C@@H]1C[C@@H]2O` [Taxol, Paclitaxel], the “cell viability (BrdU incorporation)” value in test [1] and in test [2] was “no effect on cell viability was observed” in each case.

As to `COc1cccc2c1C(=O)c1c(O)c3c(c(O)c1C2=O)C[C@@](O)(C(=O)CO)C[C@@H]3O[C@H]1C[C@H](N)[C@H](O)[C@H](C)O1` [doxorubicin], the tumor volume entry in test [3] is given as “clear increase in tumor volume”; with B16 cells, “tumor volume clearly increased”.
